This is an account of results in patent US6093744A, “N-acyl sulfamic acid esters useful as hypocholesterolemic agents” (Warner-Lambert Company, priority 1998, dated 2000).

Structures can show the parent of a compound that is named as a salt.

In one experiment the test system is Plasma TC. In words: in vivo screen designated APCC (high fat, high cholesterol diet, plasma cholesterol). More on the design: species or system male Sprague-Dawley rats. Particulars: rats, PCC diet with 0.5% cholic acid overnight, vehicle CMC/Tween; for change in vivo at 10 mg/kg / APCC % Change in Plasma TC: dose 10 mg/kg. An excerpt: In one in vivo screen designated APCC, male Sprague-Dawley rats (200 to 225 g) were randomly divided into treatment groups and dosed at 4 PM with either vehicle (CMC/Tween) or suspensions of compounds in vehicle. The normal chow diet was then replaced with a high fat, high cholesterol diet (designated PCC) containing 0.5% cholic acid. The rats consumed this diet ad libitum during the night and were sacrificed at 8 AM to obtain blood samples for cholesterol analysis using standard procedures. Statistical differences between mean cholesterol values for the same vehicle were determined using analysis of variance followed by Fisher's least significant test.

Experiment [1] has as its target T1, acyl-CoA: cholesterol acyltransferase (ACAT) (Rattus norvegicus, UniProt Q7TQM4).
T1 construct: tissue preparation containing rat liver microsomes; from tissue; host or cells: rat liver microsomes
T1 sequence (Q7TQM4 1-524): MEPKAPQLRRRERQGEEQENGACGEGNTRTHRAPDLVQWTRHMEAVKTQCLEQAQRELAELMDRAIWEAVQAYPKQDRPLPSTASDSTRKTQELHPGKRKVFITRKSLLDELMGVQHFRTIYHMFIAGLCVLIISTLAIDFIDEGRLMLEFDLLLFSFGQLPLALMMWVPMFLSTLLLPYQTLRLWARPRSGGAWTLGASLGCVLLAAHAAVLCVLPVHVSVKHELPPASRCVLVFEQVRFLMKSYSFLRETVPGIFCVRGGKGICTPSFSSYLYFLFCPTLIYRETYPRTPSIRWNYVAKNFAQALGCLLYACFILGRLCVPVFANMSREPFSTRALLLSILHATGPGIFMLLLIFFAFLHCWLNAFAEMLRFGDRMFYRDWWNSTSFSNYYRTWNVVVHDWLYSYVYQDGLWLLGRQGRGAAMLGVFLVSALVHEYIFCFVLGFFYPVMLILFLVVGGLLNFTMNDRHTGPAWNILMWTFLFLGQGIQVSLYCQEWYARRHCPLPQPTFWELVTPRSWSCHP
Briefly: In vitro inhibition of acylation of cholesterol by oleic acid (LAI), rat liver microsomes. The format is biochemical. Particulars: radiolabeled oleic acid. As for the experimental part:
The ability of representative compounds of the present invention to inhibit ACAT was measured using an in vitro test more fully described in Field F J, Salone R G, Biochemica et Biophysica 1982; 712:557-570. The test assesses the ability of a test compound to inhibit the acylation of cholesterol by oleic acid by measuring the amount of radiolabeled cholesterol oleate formed from radiolabeled oleic acid in a tissue preparation containing rat liver microsomes.
On the technique in general: Liver microsomes are a subcellular fraction often used to study metabolism.

For the compound `CC(C)c1cc(C(C)C)c(CC(=O)NS(=O)(=O)Oc2c(C(C)C)cc(NC(=O)[C@H](CCCCNC(=O)OC(C)(C)C)NC(=O)OC(C)(C)C)cc2C(C)C)c(C(C)C)c1` [Example 1, (S)-[5-tert-Butoxycarbonylamino-5-(3,5-diisopropyl-4-{[(2,4,6-triisopropyl-phenyl)-acetyl]-sulfamoyloxy}-phenylcarbanoyl)-pentyl]-carbamic acid tert-butyl ester], the change in vivo at 1 mg/kg in the experiment on Plasma TC (Rattus norvegicus, dose 1 mg/kg) came to 7%. This compound returned an IC50 in experiment [1] of 23 µM. As for `CC(C)c1cc(C(C)C)c(CC(=O)NS(=O)(=O)Oc2c(C(C)C)cc(NC(=O)[C@@H](N)CCCCN)cc2C(C)C)c(C(C)C)c1` [Example 2, (S)-[(2,4,6-Triisopropyl-phenyl)-acetyl]-sulfamic acid 4-(2,6-diamino-hexanoylamino)-2,6-diisopropyl-phenyl ester dihydrochloride], in the experiment on Plasma TC (Rattus norvegicus), the change in vivo at 10 mg/kg is -60%. In experiment [1], the IC50 is > 50 µM. Consider `CC(C)c1cc(C(C)C)c(CC(=O)NS(=O)(=O)Oc2c(C(C)C)cc(NC(=O)CNC(=O)OC(C)(C)C)cc2C(C)C)c(C(C)C)c1` [Example 3], for which, in the experiment with Plasma TC (Rattus norvegicus), the change in vivo at 30 mg/kg is -40%. In experiment [1], this compound came in with an IC50 of 18 µM. For the compound `CC(C)c1cc(C(C)C)c(CC(=O)NS(=O)(=O)Oc2c(C(C)C)cc(NC(=O)CN)cc2C(C)C)c(C(C)C)c1` [Example 4, [(2,4,6-Triisopropyl-phenyl)-acetyl]-sulfamic acid 4-(2-amino-acetylamino)-2,6-diisopropyl-phenyl ester], in the experiment on Plasma TC (Rattus norvegicus), the change in vivo at 10 mg/kg is -65%. The compound further returned an IC50 in experiment [1] of 48 µM. For `CSCCC(N)C(=O)Nc1cc(C(C)C)c(OS(=O)(=O)NC(=O)Cc2c(C(C)C)cc(C(C)C)cc2C(C)C)c(C(C)C)c1` (stereo not drawn) [Example 6, [(2,4,6-Triisopropyl-phenyl)-acetyl]-sulfamic acid 4-(2-amino-4-methylsulfanyl-butyrylamino)-2,6-diisopropyl-phenyl ester trifluoroacetate], in that order: -72% and 750 µM. In the case of `CCOC(=O)CCNC(=O)Nc1cc(C(C)C)c(OS(=O)(=O)NC(=O)Cc2c(C(C)C)cc(C(C)C)cc2C(C)C)c(C(C)C)c1` [Example 7], in the experiment with Plasma TC (Rattus norvegicus), the change in vivo at 30 mg/kg is -30%. This compound also gave an IC50 in experiment [1] of 49 µM. With `CC(C)c1cc(C(C)C)c(CC(=O)NS(=O)(=O)Oc2c(C(C)C)cc(NC(=O)NCCC(=O)O)cc2C(C)C)c(C(C)C)c1` [Example 8], the change in vivo at 10 mg/kg in the experiment on Plasma TC (Rattus norvegicus) was -15%. The IC50 in experiment [1] was > 50 µM. For `CC(C)c1cc(C(C)C)c(CC(=O)NS(=O)(=O)Oc2c(C(C)C)cc(NC(=O)C(N)Cc3c[nH]c4ccccc34)cc2C(C)C)c(C(C)C)c1` (stereo not drawn) [Example 9], the change in vivo at 10 mg/kg in the experiment with Plasma TC (Rattus norvegicus) is -25%. This compound showed an IC50 in experiment [1] of 24 µM. With `CC(C)c1cc(C(C)C)c(CC(=O)NS(=O)(=O)Oc2c(C(C)C)cc(NC(=O)CCCCN)cc2C(C)C)c(C(C)C)c1` [Example 10, [(2,4,6-Triisopropyl-phenyl)-acetyl]-sulfamic acid 4-(5-amino-pentanoylamino)-2,6-diisopropyl-phenyl ester trifluoroacetate(1:1) (salt)], in the experiment on Plasma TC (Rattus norvegicus), the change in vivo at 10 mg/kg was -15%. For `CC(C)c1cc(C(C)C)c(CC(=O)NS(=O)(=O)Oc2c(C(C)C)cc(NC(=O)[C@@H](C)N)cc2C(C)C)c(C(C)C)c1` [Example 11, (D)-[(2,4,6-Triisopropyl-phenyl)-acetyl]-sulfamic acid 4-(2-amino-propionylamino)-2,6-diisopropyl-phenyl ester trifluoroacetate(1:1) (salt)], the change in vivo at 10 mg/kg with Plasma TC (Rattus norvegicus) was -19%. In experiment [1], the IC50 is > 50 µM. For `CC(C)c1cc(C(C)C)c(CC(=O)NS(=O)(=O)Oc2c(C(C)C)cc(NC(=O)[C@H](C)N)cc2C(C)C)c(C(C)C)c1` [Example 12, (L)-[(2,4,6-Triisopropyl-phenyl)-acetyl]-sulfamic acid 4-(2-amino-propionylamino)-2,6-diisopropyl-phenyl ester], in that order: -74% and > 50 µM. Regarding `CC(C)c1cc(C(C)C)c(CC(=O)NS(=O)(=O)Oc2c(C(C)C)cc(NC(=O)C(C)(C)N)cc2C(C)C)c(C(C)C)c1` [Example 13, [(2,4,6-Triisopropyl-phenyl)-acetyl]-sulfamic acid 4-(2-amino-2-methyl-propionylamino)-2,6-diisopropyl-phenyl ester], the change in vivo at 10 mg/kg with Plasma TC (Rattus norvegicus) is -8%. In addition, in experiment [1], the IC50 is > 50 µM. Turning to `CC(C)c1cc(C(C)C)c(CC(=O)NS(=O)(=O)Oc2c(C(C)C)cc(OCCCN(C)C)cc2C(C)C)c(C(C)C)c1` [Example 14, [(2,4,6-Triisopropyl-phenyl)-acetyl]-sulfamic acid 4-(3-dimethylamino-propoxy)-2,6-diisopropyl-phenyl ester], the “APCC % Change in Plasma TC” value in the experiment with Plasma TC is reported as -11%. Besides, in experiment [1], the IC50 was > 50 µM.

Regarding `CC(C)c1cc(C(C)C)c(CC(=O)NS(=O)(=O)Oc2c(C(C)C)cc(OCCCN(C)C)cc2C(C)C)c(C(C)C)c1.Cl` [Example 15, [(2,4,6-Triisopropyl-phenyl)-acetyl]-sulfamic acid 4-(3-dimethylamino-propoxy)-2,6-diisopropyl-phenyl ester hydrochloride salt], the “APCC % Change in Plasma TC” value in the experiment on Plasma TC is recorded as -26%.

`CC(C)c1cc(C(C)C)c(CC(=O)NS(=O)(=O)Oc2c(C(C)C)cc(OCCCN)cc2C(C)C)c(C(C)C)c1` [Example 16, [(2,4,6-Triisopropyl-phenyl)-acetyl]-sulfamic acid 4-(3-amino-propoxy)-2,6-diisopropyl-phenyl ester hydrochloride salt]: the change in vivo at 10 mg/kg in the experiment with Plasma TC (Rattus norvegicus) was -47%. The concentration for half-maximal inhibition (IC50) in experiment [1] is > 50 µM. For `CC(C)c1cc(C(C)C)c(CC(=O)NS(=O)(=O)Oc2c(C(C)C)cc(SC#N)cc2C(C)C)c(C(C)C)c1` [Example 17, [(2,4,6-Triisopropyl-phenyl)-acetyl]-sulfamic acid 2,6-diisopropyl-4-thiocyanato-phenyl ester], in that order: -46% and 29 µM. Turning to `CC(C)c1cc(C(C)C)c(CC(=O)NS(=O)(=O)Oc2c(C(C)C)cc(C#N)cc2C(C)C)c(C(C)C)c1` [Example 18, [(2,4,6-Triisopropyl-phenyl)-acetyl]-sulfamic acid 4-cyano-2,6-diisopropyl-phenyl ester], in the experiment on Plasma TC (Rattus norvegicus), the change in vivo at 10 mg/kg was -38%. Further, the IC50 in experiment [1] was > 50 µM. With `CC(C)c1cc(C(C)C)c(CC(=O)NS(=O)(=O)Oc2c(C(C)C)cc(CNC(=O)CN)cc2C(C)C)c(C(C)C)c1` [Example 19, [(2,4,6-Triisopropyl-phenyl)-acetyl]-sulfamic acid 4-[(2-amino-acetylamino)-methyl]-2,6-diisopropyl-phenyl ester], in the experiment on Plasma TC (Rattus norvegicus), the change in vivo at 10 mg/kg was -16%. In experiment [1], the IC50 is > 50 µM.

Regarding `CC(C)c1cc(C(C)C)c(CC(=O)NS(=O)(=O)Oc2c(C(C)C)cc(C=O)cc2C(C)C)c(C(C)C)c1` [Example 20, [(2,4,6-Triisopropyl-phenyl)-acetyl]-sulfamic acid 4-formyl-2,6-diisopropyl-phenyl ester], in the experiment with Plasma TC (Rattus norvegicus), the change in vivo at 10 mg/kg was -44%. Moreover, in experiment [1], the concentration for half-maximal inhibition (IC50) amounted to 43.2 µM. For `CC(C)c1cc(C(C)C)c(CC(=O)NS(=O)(=O)Oc2c(C(C)C)cc(C=CC#N)cc2C(C)C)c(C(C)C)c1` [Example 21, [(2,4,6-Triisopropyl-phenyl)-acetyl]-sulfamic acid 4-(2-cyano-vinyl)-2,6-diisopropyl-phenyl ester], in the experiment with Plasma TC (Rattus norvegicus), the change in vivo at 10 mg/kg is -35%. This compound showed an IC50 in experiment [1] of 44.6 µM. For `CC(C)c1cc(C(C)C)c(CC(=O)NS(=O)(=O)Oc2c(C(C)C)cc(CNCc3ccccc3)cc2C(C)C)c(C(C)C)c1` [Example 22, [(2,4,6-Triisopropyl-phenyl)-acetyl]-sulfamic acid 4-(benzylamino-methyl)-2,6-diisopropyl-phenyl ester mono hydrochloride], in that order: -18% and 22.8 µM. In the case of `CC(C)c1cc(C(C)C)c(CC(=O)NS(=O)(=O)Oc2c(C(C)C)cc(NCCO)cc2C(C)C)c(C(C)C)c1` [Example 27, [(2,4,6-Triisopropyl-phenyl)-acetyl]-sulfamic acid 4-(2-hydroxy-ethylamino)-2,6-diisopropyl-phenyl ester], the IC50 in experiment [1] worked out at 43 µM.

As to `CC(C)c1cc(C(C)C)c(CC(=O)NS(=O)(=O)Oc2c(C(C)C)cc(S(N)(=O)=O)cc2C(C)C)c(C(C)C)c1` [Example 35, [(2,4,6-Triisopropyl-phenyl)-acetyl]-sulfamic acid 2,6-diisopropyl-4-sulfamoyl-phenyl ester], the IC50 in experiment [1] is 50 µM.

The IC50 is the concentration that gives 50% inhibition. The low end stands for greater potency, the high end for weaker potency.
